Test results reported in ChEMBL document CHEMBL4411321, “Discovery of Potent, Selective, and Orally Bioavailable Estrogen-Related Receptor-γ Inverse Agonists To Restore the Sodium Iodide Symporter Function in Anaplastic Thyroid Cancer” (J Med Chem, 2019).

How the values were obtained:
CYP1A2 = molecular target: T1, CYP1A2 (Homo sapiens, UniProt P05177); experiment: Inhibition of CYP1A2 in human liver microsomes assessed as reduction in phenacetin O-deethylase activity at 10 uM preincubated for 5 mins followed by NADPH addition and measured after 15 mins by LC-MS/MS analysis relative to control; assay type: ADME; settings: probe phenacetin (O-deethylation)
T1 sequence (P05177 whole entry): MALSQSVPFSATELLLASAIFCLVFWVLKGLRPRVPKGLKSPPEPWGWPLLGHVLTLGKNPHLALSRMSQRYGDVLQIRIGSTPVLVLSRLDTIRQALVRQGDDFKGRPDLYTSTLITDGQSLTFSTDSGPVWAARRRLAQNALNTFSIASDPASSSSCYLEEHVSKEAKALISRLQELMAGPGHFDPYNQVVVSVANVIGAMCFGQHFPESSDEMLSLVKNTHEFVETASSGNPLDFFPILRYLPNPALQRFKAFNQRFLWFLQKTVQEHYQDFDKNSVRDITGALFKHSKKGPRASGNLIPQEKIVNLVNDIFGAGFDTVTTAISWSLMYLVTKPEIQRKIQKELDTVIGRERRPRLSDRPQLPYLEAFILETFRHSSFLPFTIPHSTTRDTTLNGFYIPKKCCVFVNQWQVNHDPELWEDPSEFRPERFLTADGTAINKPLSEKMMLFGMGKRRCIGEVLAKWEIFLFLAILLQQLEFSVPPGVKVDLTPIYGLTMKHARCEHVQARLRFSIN

CYP2C9 = CYP2C9 (Homo sapiens, UniProt P11712); experiment: Inhibition of CYP2C9 in human liver microsomes assessed as reduction in tolbutamide 4-hydroxylase activity at 10 uM preincubated for 5 mins followed by NADPH addition and measured after 15 mins by LC-MS/MS analysis relative to control; assay type: ADME; settings: probe tolbutamide (4-hydroxylation)
[1] = Metabolic stability in mouse liver microsomes assessed as compound remaining at 1 uM after 30 mins in presence of NADPH regeneration system by LC-MS/MS analysis; assay type: ADME, Microsome; settings: read-out: Stability
[2] = molecular target: Voltage-gated inwardly rectifying potassium channel KCNH2 (Homo sapiens, UniProt Q12809)
Description: Inhibition of human ERG after 4 hrs by fluorescence polarization assay

[3] = Metabolic stability in dog liver microsomes assessed as compound remaining at 1 uM after 30 mins in presence of NADPH regeneration system by LC-MS/MS analysis; assay type: ADME, Canis lupus familiaris, Microsome; settings: read-out: Stability
CYP2D6 = CYP2D6 (Homo sapiens, UniProt P10635); experiment: Inhibition of CYP2D6 in human liver microsomes assessed as reduction in dextromethorphan O-demethylase activity at 10 uM preincubated for 5 mins followed by NADPH addition and measured after 15 mins by LC-MS/MS analysis relative to control; assay type: ADME; settings: probe dextromethorphan (O-demethylation)
CYP3A4 = CYP3A4 (Homo sapiens, UniProt P08684); experiment: Inhibition of CYP3A4 in human liver microsomes assessed as reduction in midazolam 1-hydroxylase activity at 10 uM preincubated for 5 mins followed by NADPH addition and measured after 15 mins by LC-MS/MS analysis relative to control; assay type: ADME; settings: probe midazolam (1-hydroxylation)
[4] = Effective permeability of the compound at 10 uM after 5 hrs by PAMPA; assay type: ADME; settings: read-out: Peff
CYP2C19 = CYP2C19 (Homo sapiens, UniProt P33261); experiment: Inhibition of CYP2C19 in human liver microsomes assessed as reduction in S-mephenytoin 4-hydroxylase activity at 10 uM preincubated for 5 mins followed by NADPH addition and measured after 15 mins by LC-MS/MS analysis relative to control; assay type: ADME; settings: probe S-mephenytoin (4-hydroxylation)
[5] = molecular target: T2, Steroid hormone receptor ERR1 (Homo sapiens, UniProt P11474)
T2 sequence (P11474 whole entry): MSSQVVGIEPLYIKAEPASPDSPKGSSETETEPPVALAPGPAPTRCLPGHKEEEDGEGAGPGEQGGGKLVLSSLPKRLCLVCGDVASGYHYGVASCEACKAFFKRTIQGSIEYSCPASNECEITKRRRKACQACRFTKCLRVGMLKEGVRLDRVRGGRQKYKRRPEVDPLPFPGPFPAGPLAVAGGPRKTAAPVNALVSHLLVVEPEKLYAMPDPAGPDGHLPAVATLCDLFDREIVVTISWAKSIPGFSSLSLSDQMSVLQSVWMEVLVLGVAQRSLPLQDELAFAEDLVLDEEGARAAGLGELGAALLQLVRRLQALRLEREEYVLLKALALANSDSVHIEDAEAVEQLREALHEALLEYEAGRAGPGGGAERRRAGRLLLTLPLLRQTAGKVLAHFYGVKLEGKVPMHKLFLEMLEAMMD

[6] = Metabolic stability in human liver microsomes assessed as compound remaining at 1 uM after 30 mins in presence of NADPH regeneration system by LC-MS/MS analysis; assay type: ADME, Microsome; settings: read-out: Stability
[7] = Metabolic stability in rat liver microsomes assessed as compound remaining at 1 uM after 30 mins in presence of NADPH regeneration system by LC-MS/MS analysis; assay type: ADME, Microsome; settings: read-out: Stability
[8] = Oral bioavailability in Sprague-Dawley rat at 9 to 10 mg/kg via gavage by LC-MS/MS analysis; assay type: ADME, organism-based; settings: in vivo
[9] = AUC (0 to infinity) in Sprague-Dawley rat at 1 mg/kg, iv by LC-MS/MS analysis; assay type: ADME, organism-based; design: dose 1 mg/kg, time infinity, route intravenous; settings: in vivo
[10] = Cmax in Sprague-Dawley rat at 9 to 10 mg/kg, po via gavage by LC-MS/MS analysis; assay type: ADME, organism-based; settings: in vivo
[11] = AUC (0 to infinity) in Sprague-Dawley rat at 9 to 10 mg/kg, po via gavage by LC-MS/MS analysis; assay type: ADME, organism-based; settings: in vivo
[12] = molecular target: T3, Estrogen-related receptor gamma (Homo sapiens, UniProt P62508)
T3 sequence (P62508 whole entry): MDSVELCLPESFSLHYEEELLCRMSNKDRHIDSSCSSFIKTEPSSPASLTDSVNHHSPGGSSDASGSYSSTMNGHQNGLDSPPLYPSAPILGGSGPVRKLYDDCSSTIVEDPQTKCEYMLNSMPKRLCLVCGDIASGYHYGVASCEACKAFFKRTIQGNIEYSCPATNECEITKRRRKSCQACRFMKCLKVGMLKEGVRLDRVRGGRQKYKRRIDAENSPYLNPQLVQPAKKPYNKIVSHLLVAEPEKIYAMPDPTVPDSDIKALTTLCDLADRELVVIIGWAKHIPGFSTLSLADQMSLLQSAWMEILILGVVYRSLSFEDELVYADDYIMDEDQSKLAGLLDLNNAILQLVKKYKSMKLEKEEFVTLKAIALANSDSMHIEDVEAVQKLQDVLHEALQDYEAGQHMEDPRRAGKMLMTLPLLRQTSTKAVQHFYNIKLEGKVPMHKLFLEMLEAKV

Estrogen receptor = molecular target: T4, Estrogen receptor (Homo sapiens, UniProt P03372)
T4 sequence (P03372 whole entry): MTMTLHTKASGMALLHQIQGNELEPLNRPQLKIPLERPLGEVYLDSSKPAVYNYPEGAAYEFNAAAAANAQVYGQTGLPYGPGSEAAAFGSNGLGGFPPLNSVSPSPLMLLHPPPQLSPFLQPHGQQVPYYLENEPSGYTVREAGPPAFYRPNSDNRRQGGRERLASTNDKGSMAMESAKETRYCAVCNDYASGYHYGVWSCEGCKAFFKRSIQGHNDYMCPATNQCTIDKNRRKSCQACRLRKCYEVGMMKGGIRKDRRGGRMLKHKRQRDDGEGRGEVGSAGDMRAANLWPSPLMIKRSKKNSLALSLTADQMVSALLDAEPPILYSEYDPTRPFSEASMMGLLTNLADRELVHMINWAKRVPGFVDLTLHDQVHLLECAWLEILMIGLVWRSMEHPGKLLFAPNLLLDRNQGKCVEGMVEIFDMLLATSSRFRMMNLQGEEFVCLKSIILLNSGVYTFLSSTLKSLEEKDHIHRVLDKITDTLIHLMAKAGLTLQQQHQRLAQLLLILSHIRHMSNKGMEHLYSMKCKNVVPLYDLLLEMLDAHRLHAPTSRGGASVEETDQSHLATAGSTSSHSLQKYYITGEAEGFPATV

[13] = Terminal half life in Sprague-Dawley rat at 1 mg/kg, iv by LC-MS/MS analysis; assay type: ADME, organism-based; settings: in vivo, read-out: beta t1/2 (converted)
in vivo [14] = settings: Sprague-Dawley, rat, iv, 1 mg/kg
in vivo [15] = settings: Sprague-Dawley, rat, iv, 1 mg/kg; remark: listed apart in the source
Description: Volume of distribution at steady state in Sprague-Dawley rat at 1 mg/kg, iv by LC-MS/MS analysis

[16] = Tmax in Sprague-Dawley rat at 9 to 10 mg/kg, po via gavage by LC-MS/MS analysis; assay type: ADME, organism-based; settings: in vivo
[17] = molecular target: T3, Estrogen-related receptor gamma; remark: listed apart in the source
Description: Inverse agonist activity at CMX-gal4-fused ERRgamma (unknown origin) transfected in human AD293 cells co-expressing CMV-beta galactosidase assessed as effect on beta-galactosidase activity after 24 hrs by luciferase reporter gene assay

in vivo [18] = settings: Sprague-Dawley, rat, plasma, iv, 1 mg/kg
[19] = AUC in Sprague-Dawley rat at 9 to 10 mg/kg, po via gavage by LC-MS/MS analysis; assay type: ADME, organism-based; settings: in vivo

Sequence of CYP2D6 (P10635 whole entry): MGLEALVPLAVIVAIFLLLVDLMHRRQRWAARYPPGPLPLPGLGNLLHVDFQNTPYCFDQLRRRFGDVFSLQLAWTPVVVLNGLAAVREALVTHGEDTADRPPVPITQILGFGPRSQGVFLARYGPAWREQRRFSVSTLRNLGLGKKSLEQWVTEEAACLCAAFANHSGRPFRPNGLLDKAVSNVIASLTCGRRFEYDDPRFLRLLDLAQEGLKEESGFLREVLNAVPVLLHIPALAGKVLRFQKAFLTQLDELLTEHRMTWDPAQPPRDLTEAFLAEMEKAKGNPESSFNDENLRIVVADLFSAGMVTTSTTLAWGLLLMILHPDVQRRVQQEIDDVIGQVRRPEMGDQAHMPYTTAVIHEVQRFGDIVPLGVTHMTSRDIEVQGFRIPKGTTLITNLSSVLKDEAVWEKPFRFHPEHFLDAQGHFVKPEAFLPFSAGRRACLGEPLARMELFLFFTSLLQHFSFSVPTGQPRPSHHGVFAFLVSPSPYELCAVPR
Sequence of Voltage-gated inwardly rectifying potassium channel KCNH2 (Q12809 whole entry): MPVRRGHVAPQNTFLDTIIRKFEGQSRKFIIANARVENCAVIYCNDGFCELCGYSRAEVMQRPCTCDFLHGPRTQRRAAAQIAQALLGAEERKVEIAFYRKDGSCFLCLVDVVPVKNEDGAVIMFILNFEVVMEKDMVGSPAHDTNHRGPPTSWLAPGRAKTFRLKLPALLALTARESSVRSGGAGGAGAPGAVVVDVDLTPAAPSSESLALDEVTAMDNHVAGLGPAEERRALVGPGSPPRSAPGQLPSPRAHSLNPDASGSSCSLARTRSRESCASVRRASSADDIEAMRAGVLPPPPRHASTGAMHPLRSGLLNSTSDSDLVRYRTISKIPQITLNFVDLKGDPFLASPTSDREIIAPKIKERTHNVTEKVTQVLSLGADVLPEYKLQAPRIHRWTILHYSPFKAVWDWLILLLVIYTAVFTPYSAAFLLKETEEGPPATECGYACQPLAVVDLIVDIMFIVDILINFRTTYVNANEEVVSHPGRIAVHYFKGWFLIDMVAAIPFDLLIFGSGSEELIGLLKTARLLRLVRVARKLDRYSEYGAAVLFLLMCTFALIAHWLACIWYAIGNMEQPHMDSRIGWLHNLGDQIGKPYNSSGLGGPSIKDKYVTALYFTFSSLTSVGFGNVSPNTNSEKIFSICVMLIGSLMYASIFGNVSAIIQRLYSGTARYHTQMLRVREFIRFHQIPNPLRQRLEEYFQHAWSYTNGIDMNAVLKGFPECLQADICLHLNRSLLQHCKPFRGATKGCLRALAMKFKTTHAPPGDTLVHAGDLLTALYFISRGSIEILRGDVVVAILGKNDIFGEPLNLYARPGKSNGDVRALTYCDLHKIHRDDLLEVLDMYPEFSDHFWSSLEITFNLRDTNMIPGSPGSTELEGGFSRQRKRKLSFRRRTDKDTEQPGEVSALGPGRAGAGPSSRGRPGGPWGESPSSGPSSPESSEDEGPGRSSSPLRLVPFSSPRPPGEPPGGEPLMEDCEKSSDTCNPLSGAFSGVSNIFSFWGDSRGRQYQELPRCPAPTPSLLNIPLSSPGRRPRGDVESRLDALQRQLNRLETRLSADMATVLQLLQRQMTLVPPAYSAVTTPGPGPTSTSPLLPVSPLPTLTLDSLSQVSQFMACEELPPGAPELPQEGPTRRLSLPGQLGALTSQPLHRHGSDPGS
Sequence of CYP2C19 (P33261 whole entry): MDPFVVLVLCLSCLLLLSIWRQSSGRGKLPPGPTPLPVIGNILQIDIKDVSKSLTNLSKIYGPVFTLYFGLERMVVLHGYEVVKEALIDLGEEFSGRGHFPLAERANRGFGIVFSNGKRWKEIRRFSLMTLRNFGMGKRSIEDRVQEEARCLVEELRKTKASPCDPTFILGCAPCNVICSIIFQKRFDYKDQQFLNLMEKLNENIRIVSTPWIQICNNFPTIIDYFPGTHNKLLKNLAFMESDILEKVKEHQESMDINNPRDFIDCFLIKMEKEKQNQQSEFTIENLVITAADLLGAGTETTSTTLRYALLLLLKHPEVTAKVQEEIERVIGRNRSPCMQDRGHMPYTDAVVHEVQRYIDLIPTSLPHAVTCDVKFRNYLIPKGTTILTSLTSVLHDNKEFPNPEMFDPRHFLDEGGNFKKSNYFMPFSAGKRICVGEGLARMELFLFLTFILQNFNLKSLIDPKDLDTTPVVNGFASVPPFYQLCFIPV
Sequence of CYP3A4 (P08684 whole entry): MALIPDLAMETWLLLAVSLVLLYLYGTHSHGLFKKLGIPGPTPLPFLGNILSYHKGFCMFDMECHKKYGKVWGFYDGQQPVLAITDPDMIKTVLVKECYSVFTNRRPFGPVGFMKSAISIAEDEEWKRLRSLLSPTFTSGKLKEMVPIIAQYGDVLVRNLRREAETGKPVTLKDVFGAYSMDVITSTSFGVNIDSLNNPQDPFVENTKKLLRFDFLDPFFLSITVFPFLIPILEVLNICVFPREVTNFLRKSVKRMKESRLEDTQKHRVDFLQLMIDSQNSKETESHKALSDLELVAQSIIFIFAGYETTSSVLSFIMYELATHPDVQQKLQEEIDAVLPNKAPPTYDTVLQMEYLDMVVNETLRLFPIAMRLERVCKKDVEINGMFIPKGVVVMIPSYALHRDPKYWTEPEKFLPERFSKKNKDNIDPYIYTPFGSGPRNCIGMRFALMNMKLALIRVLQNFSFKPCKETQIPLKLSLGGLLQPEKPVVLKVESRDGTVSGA
Sequence of CYP2C9 (P11712 whole entry): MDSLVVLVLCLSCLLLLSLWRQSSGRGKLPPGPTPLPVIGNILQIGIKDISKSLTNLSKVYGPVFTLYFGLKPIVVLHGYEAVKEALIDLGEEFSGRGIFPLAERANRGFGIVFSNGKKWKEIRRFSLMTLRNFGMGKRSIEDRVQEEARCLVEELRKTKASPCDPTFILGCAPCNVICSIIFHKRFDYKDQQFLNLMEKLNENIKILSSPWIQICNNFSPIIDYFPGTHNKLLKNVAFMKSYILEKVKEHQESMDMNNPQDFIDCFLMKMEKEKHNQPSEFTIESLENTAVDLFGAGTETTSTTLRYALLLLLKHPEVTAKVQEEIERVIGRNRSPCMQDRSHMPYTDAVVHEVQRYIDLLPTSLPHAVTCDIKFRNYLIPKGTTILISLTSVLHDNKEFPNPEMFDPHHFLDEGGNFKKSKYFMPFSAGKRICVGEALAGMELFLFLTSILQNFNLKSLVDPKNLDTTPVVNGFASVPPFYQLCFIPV

SMILES	inhibition at 0.25 h, 10 µM (CYP1A2)	inhibition at 0.25 h, 10 µM (CYP2C9)	remaining at 0.5 h, 1 µM [1]	IC50 [2]	inhibition at 0.25 h, 10 µM (CYP2D6)	inhibition at 0.25 h, 10 µM (CYP3A4)	Papp at 5 h, 10 µM [4]	inhibition at 0.25 h, 10 µM (CYP2C19)	IC50 [5]	remaining at 0.5 h, 1 µM [6]	remaining at 0.5 h, 1 µM [7]	bioavailability [8]	AUC(0-inf) [9]	Cmax [10]	AUC(0-inf) [11]	IC50 (Estrogen receptor)	half-life [13]	Vd (in vivo [15])	clearance (in vivo [18])	AUC [19]	other results
CC(C)N1CCN(c2ccc(/C(=C(/CCCO)c3ccccc3)c3ccc(O)cc3)cc2)CC1.Cl.Cl	12%	13.9%	19.9%	18.7 µM	36.5%	33.6%	0.46 ×10⁻⁶ cm/s	18.8%	> 10 µM	26.6%	32.5%										remaining at 0.5 h, 1 µM [3]: 49.7%
CCN1CCN(c2ccc(/C(=C(/CCCO)c3ccccc3)c3ccc(C)cc3)cc2)CC1.Cl.Cl	0%	13%	54.9%		13.4%	22.4%	4.47 ×10⁻⁶ cm/s	26%	> 10 µM	67.9%	62.8%	19.6%	0.6 µM·h	210 nM	1.61 µM·h	> 10 µM	3.2 h	9.8 L/kg	59 mL/min/kg	1.07 µM·h	remaining at 0.5 h, 1 µM [3]: 58%; IC50 [12]: 0.025 µM; AUC (in vivo [14]): 0.55 µM·h; Tmax [16]: 3 h; IC50 [17]: 0.018 µM
CN(C)CCOc1ccc(/C(=C(/CCCO)c2ccccc2)c2ccc(O)cc2)cc1.Cl												8.4%						16.8 L/kg	44 mL/min/kg	0.68 µM·h	
Cc1ccc(/C(=C(\CCCO)c2ccccc2)c2ccc(N3CCN(C(C)C)CC3)cc2)cc1.Cl.Cl	10.2%	26.6%	19.7%	> 30 µM	31.1%	47%	2.09 ×10⁻⁶ cm/s	30.3%	> 10 µM	54.2%	40%	17.6%	0.64 µM·h	160 nM	1.41 µM·h	> 10 µM	3.1 h	9.8 L/kg	58 mL/min/kg	1.02 µM·h	AUC (in vivo [14]): 0.58 µM·h; Tmax [16]: 4 h
Cc1ccc(/C(=C(\CCCO)c2ccccc2)c2ccc(N3CCN(C)CC3)cc2)cc1.Cl.Cl	0%	37.7%	47.6%	18.9 µM	31.8%	29.1%	4.84 ×10⁻⁶ cm/s	27.2%	> 10 µM	79.2%	65.7%	18.3%	0.29 µM·h	80 nM	0.66 µM·h	> 10 µM	2.5 h	30.3 L/kg	139 mL/min/kg	0.45 µM·h	AUC (in vivo [14]): 0.28 µM·h; Tmax [16]: 2.8 h
